Source: publication PMC6043506, “Investigating molecular interactions between oxidized neuroglobin and cytochrome c” (Scientific Reports, 2018)
Like-named read-outs stand apart in the source and are kept apart here.

B1: hNgb: ferric human Ngb; six-coordinated heme protein; PDB ID 4MPM (Chain B) (protein, UniProt Q9NPG2 1-151, looked up)
Neuroglobin: MERPEPELIRQSWRAVSRSPLEHGTVLFARLFALEPDLLPLFQYNCRQFSSPEDCLSSPEFLDHIRKVMLVIDAAVTNVEDLSSLEEYLASLGRKHRAVGVKLSSFSTVGESLLYMLEKCLGPAFTPATRAAWSQLYGAVVQAMSRGWDGE
modifications: ferric heme

What was measured:
[1] = tested on: PhNgb1-Wt binding to Cyt c; test: SPR inhibition experiment: PhNgb1-Wt binding to immobilized Cyt c in presence of PCyt c; set-up: species or system Equine heart; conditions: mixture of PhNgb1-Wt and PCyt c in 1:2 molar ratio, Fig. 4B, 60 s injection
Description: We conducted SPR experiments with mutated peptides. […] (hNgb) and […] (hNgb) together take part in binding to […] (Cyt c), making a strong bonding as predicted by simulations. We could not perform quantitative investigations (via determination of KD values) for the mutated peptides due to solubility issues at higher concentrations. […] This experiment further confirms the involvement of the predicted amino acid […]) in the hNgb-Cyt c complex formation. […] The SPR experiments were performed using a Biacore T200 SPR instrument (GE Healthcare). Cyt c, which was used as a ligand, was immobilized onto the CM5 chip up to a level of ~9000 Response Units (RU) in the presence of 10 mM sodium acetate buffer at pH 5.5. A standard amine coupling chemistry according to the manufacturer's recommended protocol (GE Healthcare) was used to immobilize Cyt c. HBS-P+ buffer was diluted 10X to 10 mM HEPES pH 7.4, 150 mM NaCl, and 0.05% v/v surfactant P20 (HBS-P) in ddH2O and filtered through a […] polystyrene membrane filter. HBS-P was used as the immobilization running buffer. The peptides were used as analytes to inject over the Cyt c-immobilized CM5 chip surface in various concentrations in an HBS-P+1% DMSO buffer. HBS-P+1% DMSO was used as the running buffer in the analyte-ligand binding experiments. […] All analytes were injected in duplicate in each cycle. […]

[2] = biological target: T1, Cyt c (Equus caballus, UniProt P00004); test: SPR qualitative comparison of peptide bindings to immobilized Cyt c; type: binding, Equine heart; conditions: for SPR signal compared to PhNgb1-Wt (qualitative) / binding to Cyt c (qualitative) / binding to Cyt c compared to PhNgb2-Wt (qualitative): SPR sensorgrams, HBS-P+1% DMSO, pH 7.4, 60 s injection; for SPR signal compared to PhNgb1-Wt (qualitative) / binding to Cyt c (qualitative): Fig. 4A; for binding to Cyt c (qualitative): repeated at least two times; for binding to Cyt c compared to PhNgb2-Wt (qualitative): Fig. 4C
T1 construct: Equine heart Cyt c and dimethyl sulfoxide (DMSO) were purchased from Sigma Aldrich; purchased Sigma Aldrich; host or cells: equine heart (tissue-derived, as the product name says)
Description: The peptides were dissolved in 100% DMSO and further diluted in the running buffer (10 mM HEPES pH 7.4, 150 mM NaCl, and 0.05% v/v surfactant P20 supplemented at 1% v/v DMSO) and injected over the Cyt c-immobilized surface at various concentrations.
Equine heart Cyt c and dimethyl sulfoxide (DMSO) were purchased from Sigma Aldrich. The amine coupling kit, Series S sensor chip CM5, and HBS-P+ buffer (0.1 M HEPES, 1.5 M NaCl, and 0.5% v/v surfactant P20) were purchased from GE Healthcare.
The SPR experiments were performed using a Biacore T200 SPR instrument (GE Healthcare). Cyt c, which was used as a ligand, was immobilized onto the CM5 chip up to a level of ~9000 Response Units (RU) in the presence of 10 mM sodium acetate buffer at pH 5.5. A standard amine coupling chemistry according to the manufacturer’s recommended protocol (GE Healthcare) was used to immobilize Cyt c. HBS-P+ buffer was diluted 10X to 10 mM HEPES pH 7.4, 150 mM NaCl, and 0.05% v/v surfactant P20 (HBS-P) in ddH2O and filtered through a […] polystyrene membrane filter. HBS-P was used as the immobilization running buffer. The peptides were used as analytes to inject over the Cyt c-immobilized CM5 chip surface in various concentrations in an HBS-P+1% DMSO buffer. HBS-P+1% DMSO was used as the running buffer in the analyte-ligand binding experiments. […] All analytes were injected in duplicate in each cycle. The kinetics experiments were repeated for three times. All qualitative experiments, including inhibition experiments were repeated at least two times with the wild type peptides injected as positive controls in each experiment.
VMD[34] was used to analyze and visualize the structure and simulation trajectories. The total interaction energy was calculated using NAMD energy plugin available in VMD. Each frame in the NVT simulation trajectory was saved at every 200 ps. An atomic distance of 3.5 Å and angle cutoff of 30 degrees were used to trace hydrogen bonding and the same atomic distance of 3.5 Å was used as the cut off to analyze interfacial contacts and salt bridges. For contacts analysis, only residues that show contacts for more than 1000 frames were considered. Carma[38] was used to determine the radius of gyration (Rg) and to perform PCA as well as PCA-based cluster analyses. GraphPad prism (GraphPad Software, Inc.) was used to generate the graphs. The bonding distances between D73 (in hNgb, atom OD2) and K72 (in Cyt c, atom NZ), T77 (in hNgb, atom OG1) and K72 (in Cyt c, atom NZ), E87 (in hNgb, atom OE2) and K27 (in Cyt c, atom NZ) as well as between E86 (in hNgb, atom OE2) and K27 (in Cyt c, atom NZ) were plotted. All graphs obtained from analyses of MD simulation trajectories were averaged with 25 neighboring points and 4th order smoothing polynomial using the GraphPad prism software. Biacore T200 evaluation software version 1.0 (GE Healthcare) was used to analyze the SPR sensorgrams.

[3] = tested on: ferric Cyt c; conditions: SPR, nanopore-based nanopipettes, ITC; ferric hNgb and ferric Cyt c; cited from earlier work
Excerpt: Electrochemical impedance spectroscopy measurements have also confirmed the formation of an hNgb-Cyt c complex. Computational docking is useful to investigate the complex formation between proteins. Several computational docking studies have bee ...

[4] = tested on: caspase 9 activation; conditions: binding of Ngb to Cyt c alone, no redox reaction required, cited from earlier work
Excerpt: Cytochrome c (Cyt c), which is another heme protein[13], is a known Ngb binding partner[12],[14]. This mitochondrial heme protein triggers cell apoptosis during apoptotic cell signaling. During ischemic insults, the cellular apoptotic pathway is activated, leading to the release of ferric Cyt c, which is an essential component of the apoptosome, into the cytoplasm[16]–[18]. […] Importantly, this K72 residue takes part in interactions of Cyt c with apoptotic protease-activation factor-1[31]. […] There ...

T1 sequence (P00004 whole entry): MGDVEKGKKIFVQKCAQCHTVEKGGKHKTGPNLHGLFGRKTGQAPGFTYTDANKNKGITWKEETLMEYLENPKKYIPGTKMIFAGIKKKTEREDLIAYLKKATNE

Molecule | SPR signal compared to PhNgb1-Wt (qualitative) [2] | binding to Cyt c (qualitative) [2] | binding to Cyt c compared to PhNgb2-Wt (qualitative) [2] | also measured
LENPKKYIP [PCyt c, peptide with amino acids L68 to P76 in Cyt c] | – | – | – | inhibition of PhNgb1-Wt binding (qualitative) [1]: diminished signal as compared to PhNgb1-Wt signal; binding of PCyt c to immobilized Cyt c (qualitative) ([2]; SPR): does not bind to immobilized Cyt c
MLVIAAAVTNVED [PhNgb1-M2] | weaker SPR signals as compared to SPR signals for PhNgb1-Wt | bind to Cyt c | – | –
MLVIDAAVANVED [PhNgb1-M1] | weaker SPR signals as compared to SPR signals for PhNgb1-Wt | bind to Cyt c | – | –
SSLAAYLAS [PhNgb2-M2] | – | – | comparable binding | –
SSLEAYLAS [PhNgb2-M1] | – | – | stronger binding | –
B1 | – | – | – | affinity to ferric Cyt c [3]: micromolar affinity; effect on caspase 9 activation [4]: enough to suppress caspase-9 activation; effect on caspase 9 activation ([4]; listed as Ngb): sufficient to block the Cyt c-induced caspase 9 activation
